Assay results as given in paper PMC9457533, “Study on Metronidazole Acid-Base Behavior and Speciation with Ca^2+ for Potential Applications in Natural Waters” (Molecules, 2022).
Several values for one entry are separate records, joined by “and”; a condition that tells them apart may be missing. Identical values can stand only once. Like-named read-outs stand apart in the source and are kept apart here.

Key:
[1] = Dependence of Ca^2+-MNZ formation constant on ionic strength (Debye-Hückel type equation); assay type: physicochemical; conditions: Ca + L + H = CaLH, t = 25 °C, NaCl
Text: The choice to carry out the experiments at various ionic strengths made it possible to study the dependence of the values of the protonation and formation constants on the ionic strength, expressed by a Debye-Hückel type equation, reported below: (5) logβ=logβ^T − 0.51 z* I/1 + 1.5 I + CI where β^T is the protonation constant at infinite dilution, z* is the parameter that refers to the charges present in the solution corresponding to ∑z^2reagents − ∑z^2products, and C refers to the empirical parameter that depends on the stoichiometric coefficients and on the charges. Using Equation (5) and equilibrium constants at various ionic strength values, the formation constants extrapolated to I = 0 mol L^−1, together with the empirical parameter C, were obtained.
The protonation constant of MNZ (L), formation constant values of Ca^2+(M)-MNZ (L), and titration parameters (analytical concentration of the reagents, standard potential E^0, junction potential) were determined by using BSTAC and STACO programs. LIANA program has provided the parameters characterizing the dependence of the protonation and formation constant values on the temperature and ionic strength. […] The speciation diagrams and the formation percentage of the species are determined by the Hyss program.

[2] = Potentiometric titrations: protonation constants of MNZ in NaCl; assay type: physicochemical; conditions: for logβ^H2L: 2H + L = H2L; for logβ^HL: H + L = HL; for logβ average value: I = 0.15 mol L^-1, average of 1H-NMR, UV; for logK^H2L: LH + H = H2L
Text: The knowledge of the protonation constants of a ligand is crucial to defining the ionization state which influences several characteristics, such as aqueous solubility, and complexation ability. The equilibrium reactions associated with the protonation constant values are the following, where the charges are omitted for simplicity and MNZ was indicated as L: iH + L = HiL β^H^iL(1) H + Hi−1L = HiL K^H^iL(2)
The potentiometric titrations were employed by Metrohm-Titrando 809 automated potentiometer with a combined glass electrode ORION, type Ross 8102SC and a Metrohm Dosino 800 automatic dispenser. The titrations were performed in cells with a capacity of 25 mL, characterized by a double wall inside which thermostated water circulates. The cells were connected to a thermostat model D1-G Haake. During the measurements, pure N2 was bubbled to avoid CO2 and O2 in solution. The system is interfaced to a PC through the Metrohm TIAMO 2.0 software, which automatically acquires the mL/mV pairs. It can control several parameters, such as e.m.f. stability, titrant delivery, and data acquisition. Estimated accuracy of this apparatus is ±0.15 mV and ±0.002 mL for e.m.f. and for readings of titrant volume. The acid-base titrations were carried out first on 25 mL solutions containing L, HCl, and NaCl as supporting electrolytes at different temperatures and ionic strength conditions. Various potentiometric titrations are performed on 25 mL containing Ca^2+-L in different ratios, in NaCl at t = 15, 25, and 37 °C and I = 0.15, 0.5 and […]. The solutions were titrated using standard NaOH solution. A calibration was associated with each measurement by titration with NaOH of a solution containing HCl, NaCl, and H2O, in order to calculate the standard electrode potential (E^0) and the pKw values.
(§1) The protonation constant of MNZ (L), formation constant values of Ca^2+(M)-MNZ (L), and titration parameters (analytical concentration of the reagents, standard potential E^0, junction potential) were determined by using BSTAC and STACO programs. LIANA program has provided the parameters characterizing the dependence of the protonation and formation constant values on the temperature and ionic strength. More details on software are present in ref. [59]. ^1H NMR data were processed by HypNMR software, which allows for calculating protonation and formation constant values and the individual chemical shift of species through the observed signals and assuming fast mutual exchange in the NMR time scale. UV-Vis data are processed by the HypSpec program, which allows refining of the protonation and formation constant as well as the molar absorption coefficient values (ε) of the species. The speciation diagrams and the formation percentage of the species are determined by the Hyss program.

[3] = Distribution diagram of Ca^2+-MNZ system vs pH; assay type: physicochemical; conditions: I = 0.15 mol L^-1, CL = 2 mmol L^-1, CCa = 1 mmol L^-1, 4 ≤ pH ≤ 10
Procedure: as §1

[4] = design: method as in earlier work; conditions: t = 25 °C, I = 0.5 mol L^-1 in KCl, potentiometry; cited from earlier work
[5] = Distribution diagram of MNZ species vs pH; assay type: physicochemical; conditions: t = 25 °C, I = 0.15 mol L^-1, CL = 2 mmol L^-1, 4 ≤ pH ≤ 10
Procedure: as §1

[6] = Dependence of protonation constants on temperature (van't Hoff equation), thermodynamic parameters; assay type: physicochemical; conditions: t = 298.15 K, I = 0.15 mol L^-1 NaCl
Procedure: The protonation and formation constants values acquired at the three different temperatures of 15, 25, and 37 °C, listed in Table 1, were used to study their dependence on temperature, as already shown for several systems. The data obtained by the potentiometric measurements were analyzed using the following van’t Hoff equation:logβT = logβθ + ΔH^0(1/θ − 1/T) R ln 10(6) where logβT is the stability constant at a certain temperature (expressed in kelvin), while logβθ is the stability constant at t = 298.15 K, and R is the universal gas constant expressed as 8.314 J K^−1 mol^−1. Using the equation just reported, it was possible to calculate the protonation and formation enthalpies change values, together with Gibbs free energy and entropy changes.
as §1

[7] = design: method as in PMID 23380153; conditions: 25 °C, I = 0.2 mol L^-1 in NaCl, water-ethanol (90:10, v/v), potentiometric titrations; cited from earlier work
[8] = t = 15 °C, I = 0.15 mol L^-1 NaCl
[9] = t = 15 °C, I = 0.5 mol L^-1 NaCl
[10] = t = 15 °C, I = 0.97 mol L^-1 NaCl
[11] = t = 25 °C, I = 0.5 mol L^-1 NaCl
[12] = t = 25 °C, I = 0.96 mol L^-1 NaCl
[13] = t = 37 °C, I = 0.14 mol L^-1 NaCl
[14] = t = 37 °C, I = 0.5 mol L^-1 NaCl
[15] = t = 37 °C, I = 0.96 mol L^-1 NaCl

SMILES: Cc1ncc([N+](=O)[O-])n1CCO [MNZ, 2-Methyl-5-nitroimidazole-1-ethanol]
- C (empirical parameter for dependence on ionic strength, Equation (5)) [1]: 1.0(2)
- log^Tβ (constant at infinite dilution) ([1]; extrapolated to I = 0 mol L^-1): 15.0(2)
- logβ^H2L [2, 8]: 14.559(5) ^4
- logβ^H2L [2, 9]: 14.833(4)
- logβ^H2L [2, 10]: 14.877(7)
- logβ^H2L ([2]; t = 25 °C, I = 0.15 mol L^-1 NaCl, potentiometry): 14.130(4)
- logβ^H2L [2, 11]: 15.18(4)
- logβ^H2L [2, 12]: 15.05(6)
- logβ^H2L [2, 13]: 14.27(8)
- logβ^H2L [2, 14]: 14.75(8)
- logβ^H2L [2, 15]: 14.601(8)
- logβ^HL [2, 8]: 12.00(1) ^4
- logβ^HL [2, 9]: 12.180(8)
- logβ^HL [2, 10]: 12.12(1)
- logβ^HL [2, 11]: 12.51(4)
- logβ^HL [2, 12]: 12.22(6)
- logβ^HL [2, 13]: 11.88(7)
- logβ^HL [2, 14]: 12.14(8)
- logβ^HL [2, 15]: 12.000(6)
- logβ average value ([2]; L + 2H = LH2, t = 25 °C, potentiometry): 14.15(6)
- logβ average value ([2]; L + H = LH, t = 25 °C, potentiometry): 11.74(2) ^1
- logK^H2L [2, 8]: 2.56
- logK^H2L [2, 9]: 2.653
- logK^H2L [2, 10]: 2.76
- logK^H2L ([2]; t = 25 °C, I = 0.15 mol L^-1 NaCl): 2.46
- logK^H2L [2, 11]: 2.67
- logK^H2L [2, 12]: 2.83
- logK^H2L [2, 13]: 2.39
- logK^H2L [2, 14]: 2.61
- logK^H2L [2, 15]: 2.601
- maximum metal fraction of CaLH species ([3]; t = 25 °C): 0.4
- maximum metal fraction of CaLH species ([3]; t = 37 °C): over 0.1
- logK2 (protonation constant) [4]: 2.68
- maximum ligand fraction of the mono-protonated species [5]: over 0.9
- TΔS ([6]; L + H = LH): 14.1 kcal/mol
- ΔG ([6]; L + H = LH): -15.9 kcal/mol
- ΔH ([6]; L + H = LH): -8 kJ mol^-1 and −8(7) kJ mol^-1
- TΔS ([6]; LH + H = LH2): 0.24 kcal/mol
- ΔG ([6]; LH + H = LH2): -3.35 kcal/mol
- ΔH ([6]; LH + H = LH2): -13 kJ mol^-1 and −13(3) kJ mol^-1
- logK1 (protonation constant) [7]: 18.1
- logK2 (protonation constant) [7]: 7.01
- logK3 (protonation constant) [7]: 2.64
